Laboratory results reported in patent US10954253B2, “1,2-dihydro-3H-pyrazolo[3,4-d]pyrimidin-3-one derivative as Wee1 inhibitor” (SHIJIAZHUANG SAGACITY NEW DRUG DEVELOPMENT CO., LTD., priority 2017, dated 2021).

biological target: Wee1 (Homo sapiens (Human), UniProt P30291); experiment: In vitro enzymatic inhibitory activity (33P-ATP filter-binding kinase assay, MBP substrate); assay type: biochemical; details: Wee-1 150 nM, MBP 20 μM
Method: The compounds of the present invention for experimental use were all self-prepared, and their chemical names and structural formulas are shown in the preparation embodiments of the respective compounds. The experimental tests were carried out in Reaction Biology Corporation, USA, and the experimental results were provided by the company. Basic reaction buffer: 20 mM hydroxyethylpiperazine ethanesulfuric acid (pH 7.5), 10 mM magnesium chloride, 1 mM EGTA, 0.02% Brij35, 0.02 mg/mL bovine serum albumin, 0.1 mM Na3VO4, 2 mM DTT, 1% DMSO Enzyme: Wee-1 concentration is 150 nM Matrix: MBP concentration is 20 μM The tested compound was formulated into a 5 mM solution with 100% DMSO, and a 10 points 3-fold gradient dilution was performed with DMSO through an automated pipetting station epMotion 5070. 1. Fresh matrix configuration reaction buffer was prepared; 2. The Wee-1 was added into the matrix solution and shaked gently; 3. DMSO solution of the compound were added into the kinase reaction mixture using an acoustic technique (Echo 550; nanoliter range) and incubated for 20 minutes at room temperature; 4. ^33P-ATP (specific activity, 10 μCi/μL) was added into the reaction mixture to stimulate the reaction; 5. Incubated for 2 hours at room temperature; 6. Kinase activity was detected by filter-binding method.

Wee1, sequence (P30291 whole entry): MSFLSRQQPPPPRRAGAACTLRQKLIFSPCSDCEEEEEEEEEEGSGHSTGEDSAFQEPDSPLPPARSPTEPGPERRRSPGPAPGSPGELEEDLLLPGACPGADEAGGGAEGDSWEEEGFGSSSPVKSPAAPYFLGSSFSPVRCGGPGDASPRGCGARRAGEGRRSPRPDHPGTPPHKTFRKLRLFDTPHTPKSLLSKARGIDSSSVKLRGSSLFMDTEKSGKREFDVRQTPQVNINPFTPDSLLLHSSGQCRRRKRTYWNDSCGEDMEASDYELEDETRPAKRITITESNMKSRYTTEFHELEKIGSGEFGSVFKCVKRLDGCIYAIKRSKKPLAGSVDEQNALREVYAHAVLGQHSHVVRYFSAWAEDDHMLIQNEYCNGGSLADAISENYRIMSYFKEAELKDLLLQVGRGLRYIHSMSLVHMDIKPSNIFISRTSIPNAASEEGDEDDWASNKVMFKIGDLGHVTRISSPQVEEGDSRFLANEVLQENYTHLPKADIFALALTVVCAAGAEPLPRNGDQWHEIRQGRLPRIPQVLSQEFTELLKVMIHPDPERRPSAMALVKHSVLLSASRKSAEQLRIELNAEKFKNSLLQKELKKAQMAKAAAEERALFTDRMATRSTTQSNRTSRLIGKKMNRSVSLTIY

Row | IC50 | Compound
1 | 48.8 nM | CCCn1c(=O)c2cnc(Nc3ccc(N4CCC5(CCN(C)CC5)CC4)cc3)nc2n1-c1cccc(C(C)(C)O)n1 [Embodiment 24, 1-(6-(2-hydroxypropan-2-yl)pyridin-2-yl)-6-((4-(9-methyl-3,9-diazaspiro[5.5]undecan-3-yl)phenyl)amino)-2-propyl-1H-pyrazolo[3,4-d]pyrimidin-3(2H)-one]
2 | 109 nM | C=CCn1c(=O)c2cnc(Nc3ccc(N4CCC5(CCN(C)CC5)CC4)cc3)nc2n1-c1nccs1 [Embodiment 9, 2-allyl-6-((4-(9-methyl-3,9-diazaspiro[5.5]undecan-3-yl)phenyl)amino)-1-(thiazol-2-yl)-1H-pyrazolo[3,4-d]pyrimidin-3(2H)-one]
3 | 239 nM | CN1CCC2(CC1)CCN(c1ccc(Nc3ncc4c(=O)n(CC(F)F)n(-c5ccccc5)c4n3)cc1)CC2 [Embodiment 22, 2-(2,2-difluroethyl)-6-((4-(9-methyl-3,9-diazaspiro[5.5]undecan-3-yl)phenyl)amino)-1-phenyl-1H-pyrazolo[3,4-d](2H)-one]
4 | 42 nM | C=CCn1c(=O)c2cnc(Nc3ccc(N4CCC5(CCN(C)CC5)CC4)cc3)nc2n1-c1cccc(C(N)=O)n1 [Embodiment 13, 6-(2-allyl-6-((4-(9-methyl-3,9-diazaspiro[5.5]undecan-3-yl)phenyl)amino)-3-oxo-2,3-dihydro-1H-pyrazolo[3,4-d]pyrimidin-1-yl)picolinamide]
5 | 13.1 nM | C=CCn1c(=O)c2cnc(Nc3ccc(N4CCC5(CCN(C)CC5)CC4)cc3)nc2n1-c1cccc(C(C)(O)C(F)(F)F)n1 (centres unmarked) [Embodiment 41, 2-allyl-6-((4-(9-methyl-3,9-diazaspiro[5.5]undecan-3-yl)phenyl)amino)-1-(6-(1,1,1-trifluoro-2-hydroxypropan-2-yl)pyridin-2-yl)-1H-pyrazolo[3,4-d]pyrimidin-3(2H)-one]
6 | 131 nM | CN1CCC2(CC1)CCN(c1ccc(Nc3ncc4c(=O)n(C)n(-c5ccccc5)c4n3)cc1)CC2 [Embodiment 18, 2-methyl-6-((4-(9-methyl-3,9-diazaspiro[5.5]undecane-3-yl)phenyl)amino)-1-phenyl-1H-pyrazolo[3,4-d](2H)-one]
7 | 24.6 nM | C=CCn1c(=O)c2cnc(Nc3ccc(N4CCC5(CCN(C)CC5)CC4)cc3)nc2n1-c1ccccn1 [Embodiment 3, 2-allyl-6-((4-(9-methyl-3,9-diazaspiro[5.5]undecan-3-yl)phenyl)amino)-1-(pyridin-2-yl)-1H-pyrazolo[3,4-d]pyrimidin-3(2H)-one]
8 | 63 nM | C=CCn1c(=O)c2cnc(Nc3ccc(N4CCC5(CCN(C)CC5)CC4)cc3)nc2n1-c1cccc(OC2COC2)n1 [Embodiment 53, 2-allyl-6-((4(9-methyl-3,9-diazaspiro[5.5]undecan-3-yl)phenyl)amino)-1-(6-(oxetan-3-yloxy)pyridin-2-yl)-1H-pyrazolo[3,4-d]pyrimidin-3(2H)-one]
9 | 30.4 nM | C=CCn1c(=O)c2cnc(Nc3ccc(N4CCC5(CCN(C)CC5)CC4)cc3)nc2n1-c1cccc(C2(C)CC2)n1 [Compound 68, 2-allyl-6-((4-(9-methyl-3,9-diazaspiro[5.5]undecan-3-yl)phenyl)amino)-1-(6-(1-methylcyclopropyl)pyridin-2-yl)-1H-pyrazolo[3,4-d]pyrimidin-3(2H)-one]
10 | 42.5 nM | C=CCn1c(=O)c2cnc(Nc3ccc(N4CCC5(CCN(C)CC5)CC4)cc3)nc2n1-c1cccc(C(=O)NC)c1 [Embodiment 17, 3-(2-allyl-6-((4-(9-methyl-3,9-diazaspiro[5.5]undecan-3-yl)phenyl)amino)-3-oxo-2,3-dihydro-1H-pyrazolo[3,4-d]pyrimidin-1-yl)-N-methylbenzamide]
11 | 17.4 nM | C=CCn1c(=O)c2cnc(Nc3ccc(N4CCC5(CCN(C)CC5)CC4)cc3)nc2n1-c1cccc(C2(O)COC2)n1 [Embodiment 42, 2-allyl-1-(6-(3-hydroxyoxetan-3-yl)pyridin-2-yl)-6-((4-(9-methyl-3,9-diazaspiro[5.5]undecan-3-yl)phenyl)amino)-1H-pyrazolo[3,4-d]pyrimidin-3(2H)-one]
12 | 3.1 nM | C=CCn1c(=O)c2cnc(Nc3ccc(N4CCC5(CCN(C)CC5)CC4)cc3)nc2n1-c1cccc(C(C)(F)F)n1 [Embodiment 49, 2-allyl-1-(6-(1,1-difluoroethyl)pyridin-2-yl)-6-((4-(9-methyl-3,9-diazaspiro[5.5]undecan-3-yl)phenyl)amino)-1H-pyrazolo[3,4-d]pyrimidin-3(2H)-one]
13 | 251 nM | C=CCn1c(=O)c2cnc(Nc3ccc(N4CCC5(CCN(C)CC5)CC4)cc3)nc2n1-c1ncccn1 [Embodiment 4, 2-allyl-6-((4-(9-methyl-3,9-diazaspiro[5.5]undecan-3-yl)phenyl)amino)-1-(pyrimidin-2-yl)-1H-pyazolo[3,4-d]pyrimidine-3(2H)-one]
14 | 20.4 nM | C=CCn1c(=O)c2cnc(Nc3ccc(N4CCC5(CCN(C)CC5)CC4)cc3)nc2n1-c1cccc(Cl)n1 [Embodiment 25, 2-allyl-1-(6-chloropyridin-2-yl)-6-((4-(9-methyl-3,9-diazaspiro[5.5]undecan-3-yl)phenyl)amino)-1H-pyrazolo[3,4-d]pyrimidin-3(2H)-one]
15 | 6.3 nM | C=CCn1c(=O)c2cnc(Nc3ccc(N4CCC5(CCN(C)CC5)CC4)cc3)nc2n1-c1cccc(OC(C)C)n1 [Embodiment 48, 2-allyl-1-(6-isopropoxypyridin-2-yl)-6-((4-(9-methyl-3,9-diazaspiro[5.5]undecan-3-yl)phenyl)amino)-1H-pyrazolo[3,4-d]pyrimidin-3(2H)-one]
16 | 9 nM | C=CCn1c(=O)c2cnc(Nc3ccc(N4CCC5(CCNCC5)CC4)cc3)nc2n1-c1cccc(C2(F)COC2)n1 [Compound 77, 6-((4-(-3,9-diazaspiro[5.5]undecan-3-yl)phenyl)amino)-2-allyl-1-(6-(3-fluoro-oxetan-3-yl)pyridin-2-yl)-1H-pyrazolo[3,4-d]pyrimidin-3(2H)-one]
17 | 8.3 nM | C=CCn1c(=O)c2cnc(Nc3ccc(N4CCC5(CCN(CC#N)CC5)CC4)cc3)nc2n1-c1cccc(C(C)(C)O)n1 [Compound 63, 2-(9-(4((2-allyl-1(6-(2-hydroxypropan-2-yl)pyridin-2-yl)-3-oxo-2,3-dihydro-1H-pyrazolo[3,4-d]pyrimidin-6-yl)amino)phenyl)-3,9-diazaspiro[5.5]undecan-3-yl)acetonitrile]
18 | 241 nM | C=CCn1c(=O)c2cnc(Nc3ccc(N4CCC5(CCN(C)CC5)CC4)cc3C)nc2n1-c1cccc(C(C)(C)O)n1 [Embodiment 35, 2-allyl-1-(6-(2-hydroxypropan-2-yl)pyridin-2-yl)-6((2-methyl-4-(9-methyl-3,9-diazaspiro[5.5]undecan-3-yl)phenyl)amino)-1H-pyrazolo[3,4-d]pyrimidine-3(2H)-one]

Row | Compound | IC50
19 | C=CCn1c(=O)c2cnc(Nc3ccc(N4CCC5(CCN(C)CC5)CC4)cc3)nc2n1-c1cccc([C@@](C)(O)C(F)(F)F)n1 [Compound 74, (R)-2-allyl-6-((4-(9-methyl-3,9-diazaspiro[5.5]undecan-3-yl)phenyl)amino)-1-(6-(1,1,1-trifluoro-2-hydroxypropan-2-yl)pyridin-2-yl)-1H-pyrazolo[3,4-d]pyrimidin-3(2H)-one] | 13 nM
20 | C=CCn1c(=O)c2cnc(Nc3ccc(N4CCC5(CCN(C)CC5)CC4)cc3)nc2n1-c1cccc([C@](C)(O)C(F)(F)F)n1 [Compound 75, (S)-2-allyl-6-((4-(9-methyl-3,9-diazaspiro[5.5]undecan-3-yl)phenyl)amino)-1-(6-(1,1,1-trifluoro-2-hydroxypropan-2-yl)pyridin-2-yl)-1H-pyrazolo[3,4-d]pyrimidin-3(2H)-one] | 17 nM
